The values below come from patent US20260265256A1 (IMPACT THERAPEUTICS (SHANGHAI), INC., priority 2023, published 2026).

For the first assay, the system named is MDA-MB-436 cells. The assay is described as follows: Growth inhibition assay against BRCA mutant human breast cancer MDA-MB-436 cell line (CCK-8, 7 days). Particulars: 168 h, MDA-MB-436, 7 days, read-out: IC50 (nM), proliferation of human breast cancer cells MDA-MB-436. It counts as cell-based. The procedure:
The cells were cultured in complete medium (DMEM medium+10% FBS+Insulin+glutathione). When the confluence reached about 80%, cells were digested and gently dispensed from the bottom of the dish with a 1 mL pipette. Cell suspension was collected and centrifuged at 500 rpm for 3 min. The supernatant was discarded, and the cell pellet were re-suspended in complete medium. The cells were seeded into a culture dish at an appropriate proportion, and then cultured in a 5% CO2 incubator at 37° C. The assay was carried out when the cells were in optimum condition and the confluence was reached 80%. Cells in the logarithmic growth phase were taken to centrifugate, and the culture supernatant was removed. The cells were resuspended in refresh complete medium and counted. The resuspended cells were seeded at 3000/well in a 96-well plate and incubated at 37° C., 5% CO2 incubator overnight. […] The solution was mixed by oscillation. 0.10% DMSO was used as the control.
The next day, the 96-well plate inoculated with cells was taken out from the incubator, and the culture supernatant was removed. Then fresh medium of 195 uL/well and 5 μL/well of 40× test compound solution as mentioned above were added into the 96 well plate, respectively. Finally, the plate was incubated for 7 days in a 37° C. 5% CO2 incubator. The medium containing compound was changed on the fourth day. After 7 days, 20 μL of CCK-8 was added to each well and shaken gently, then was cultured for 4 hours. The plate was shaken for 5 min after incubation, the absorbance values of 450 nm or 650 nm wavelengths were recorded respectively (OD=absorbance value of 450 nm−absorbance value of 650 nm) by using the multifunction readout instrument.
Data were analyzed by software GraphPad Prism 6.0. The inhibitory activity of compounds on cell proliferation was plotted using cell survival rate against the compound concentration as coordinates. Cell survival rate %=(ODcompound−ODbackground)/(ODDMSO−ODbackground)×100.
Table 2 summarizes the inhibitory effect data (IC50) of the compounds on the proliferation of human breast cancer cells MDA-MB-436.
`CNC(=O)c1ccc(-n2cc3c(n2)CN(Cc2ccc4c([nH]c(=O)c5c(C)cnn54)c2F)C3)c(C)n1` [Example 2, 5-(5-((6-fluoro-3-methyl-4-oxo-4,5-dihydropyrazolo[1,5-a]quinoxalin-7-yl)methyl)-5,6-dihydropyrrolo[3,4-c]pyrazol-2(4H)-yl)-N,6-dimethylpicolinamide]: the IC50 came out at 57 nM.
The same measure, in the same setting: under `CNC(=O)c1ccc(-n2cc3c(n2)CN(Cc2ccc4c([nH]c(=O)c5c(C)cnn54)c2F)C3)c(F)n1` [Example 3, 5-(5-((6-fluoro-3-methyl-4-oxo-4,5-dihydropyrazolo[1,5-a]quinoxalin-7-yl)methyl)-5,6-dihydropyrrolo[3,4-c]pyrazol-2(4H)-yl)-6-fluoro-N-methylpicolinamide] stands 9.71 nM.
On the same count and under the same terms, the result for `CNC(=O)c1ccc(-n2cc3c(n2)CN(Cc2ccc4c([nH]c(=O)c5c(C)cnn54)c2F)C3)c(Cl)n1` [Example 4, 5-(5-((6-fluoro-3-methyl-4-oxo-4,5-dihydropyrazolo[1,5-a]quinoxalin-7-yl)methyl)-5,6-dihydropyrrolo[3,4-c]pyrazol-2(4H)-yl)-6-chloro-N-methylpicolinamide] reads 91 nM; that for `CNC(=O)c1ccc(-n2cc3c(n2)CN(Cc2ccc4c([nH]c(=O)c5c(C)cnn54)c2F)C3)c(O)n1` [Example 5, 5-(5-((6-fluoro-3-methyl-4-oxo-4,5-dihydropyrazolo[1,5-a]quinoxalin-7-yl)methyl)-5,6-dihydropyrrolo[3,4-c]pyrazol-2(4H)-yl)-6-hydroxy-N-methylpicolinamide], over 100 nM; that for `CCNC(=O)c1ccc(-n2cc3c(n2)CN(Cc2ccc4c([nH]c(=O)c5c(C)cnn54)c2F)C3)c(F)n1` [Example 7, N-ethyl-6-fluoro-5-(5-((6-fluoro-3-methyl-4-oxo-4,5-dihydropyrazolo[1,5-a]quinoxalin-7-yl)methyl)-5,6-dihydropyrrolo[3,4-c]pyrazol-2(4H)-yl)picolinamide], 27.2 nM.
Turning to `CNC(=O)c1ccc(-n2cc3c(n2)CCN(Cc2ccc4c([nH]c(=O)c5c(C)cnn54)c2F)C3)cn1` [Example 10-1, 5-(5-((6-fluoro-3-methyl-4-oxo-4,5-dihydropyrazolo[1,5-a]quinoxalin-7-yl)methyl)-4,5,6,7-tetrahydro-2H-pyrazolo[4,3-c]pyridin-2-yl)-N-methylpicolinamide], the IC50 was over 100 nM.
The same measure, in the same setting: under `CNC(=O)c1ccc(-n2ncc3c2CCN(Cc2ccc4c([nH]c(=O)c5c(C)cnn54)c2F)C3)cn1` [Example 10-2, 5-(5-((6-fluoro-3-methyl-4-oxo-4,5-dihydropyrazolo[1,5-a]quinoxalin-7-yl)methyl)-4,5,6,7-tetrahydro-1H-pyrazolo[4,3-c]pyridin-1-yl)-N-methylpicolinamide] stands over 100 nM; under `CNC(=O)c1ccc(-n2cc3c(n2)CN(Cc2ccc4c([nH]c(=O)c5c(F)cnn54)c2F)C3)c(O)n1` [Example 17, 5-(5-((3,6-difluoro-4-oxo-4,5-dihydropyrazolo[1,5-a]quinoxalin-7-yl)methyl)-5,6-dihydropyrrolo[3,4-c]pyrazol-2(4H)-yl)-6-hydroxy-N-methylpicolinamide], over 100 nM.
On the same count and under the same terms, the result for `O=C(NC1CC1)c1ccc(-n2cc3c(n2)CN(Cc2ccc4c([nH]c(=O)c5c(F)cnn54)c2F)C3)cn1` [Example 20, 5-(5-((3,6-difluoro-4-oxo-4,5-dihydropyrazolo[1,5-a]quinoxalin-7-yl)methyl)-5,6-dihydropyrrolo[3,4-c]pyrazol-2(4H)-yl)-N-cyclopropylpicolinamide] reads 0.65 nM; that for `O=C(NC1CC1)c1ccc(-n2cc3c(n2)CN(Cc2ccc4c([nH]c(=O)c5c(F)cnn54)c2F)C3)c(F)n1` [Example 21, N-cyclopropyl-5-(5-((3,6-difluoro-4-oxo-4,5-dihydropyrazolo[1,5-a]quinoxalin-7-yl)methyl)-5,6-dihydropyrrolo[3,4-c]pyrazol-2(4H)-yl)-6-fluoropicolinamide], 2.14 nM; that for `CNC(=O)c1ccc(-n2cc3c(n2)CCN(Cc2ccc4c([nH]c(=O)c5c(F)cnn54)c2F)C3)cn1` [Example 22, 5-(5-((3,6-difluoro-4-oxo-4,5-dihydropyrazolo[1,5-a]quinoxalin-7-yl)methyl)-4,5,6,7-tetrahydro-2H-pyrazolo[4,3-c]pyridin-2-yl)-N-methylpicolinamide], over 100 nM.
Same read-out and setting: the result for `CNC(=O)c1ccc(-n2cc3c(n2)CCN(Cc2ccc4c([nH]c(=O)c5c(F)cnn54)c2F)C3)c(C)n1` [Example 23, 5-(5-((3,6-difluoro-4-oxo-4,5-dihydropyrazolo[1,5-a]quinoxalin-7-yl)methyl)-4,5,6,7-tetrahydro-2H-pyrazolo[4,3-c]pyridin-2-yl)-N,6-dimethylpicolinamide] reads over 100 nM.
Turning to `CNC(=O)c1ccc(-n2cc3c(n2)CCN(Cc2ccc4c([nH]c(=O)c5c(F)cnn54)c2F)C3)c(F)n1` [Example 24, 5-(5-((3,6-difluoro-4-oxo-4,5-dihydropyrazolo[1,5-a]quinoxalin-7-yl)methyl)-4,5,6,7-tetrahydro-2H-pyrazolo[4,3-c]pyridin-2-yl)-6-fluoro-N-methylpicolinamide], the IC50 was over 100 nM.
On the same count and under the same terms, the result for `CNC(=O)c1ccc(-c2nc3c(o2)CN(Cc2ccc4c([nH]c(=O)c5c(C)cnn54)c2F)C3)cn1` [Example 32, 5-(5-((6-fluoro-3-methyl-4-oxo-4,5-dihydropyrazolo[1,5-a]quinoxalin-7-yl)methyl)-5,6-dihydro-4H-pyrrolo[3,4-d]oxazol-2-yl)-N-methylpicolinamide] reads 18.4 nM; that for `CNC(=O)c1ccc(-c2nc3c(s2)CN(Cc2ccc4c([nH]c(=O)c5c(C)cnn54)c2F)C3)cn1` [Example 33, 5-(5-((6-fluoro-3-methyl-4-oxo-4,5-dihydropyrazolo[1,5-a]quinoxalin-7-yl)methyl)-5,6-dihydro-4H-pyrrolo[3,4-d]thiazol-2-yl)-N-methylpicolinamide], over 100 nM; that for `CNC(=O)c1ccc(-n2nc3c(c2C)CN(Cc2ccc4c([nH]c(=O)c5c(F)cnn54)c2F)C3)cn1` [Example 40, 5-(5-((3,6-difluoro-4-oxo-4,5-dihydropyrazolo[1,5-a]quinoxalin-7-yl)methyl)-3-methyl-5,6-dihydropyrrolo[3,4-c]pyrazol-2(4H)-yl)-N-methylpicolinamide], over 100 nM.
Same read-out and setting: the result for `CNC(=O)c1ccc(-c2nc3c(n2C)CN(Cc2ccc4c([nH]c(=O)c5c(F)cnn54)c2F)C3)cn1` [Example 44, 5-(5-((3,6-difluoro-4-oxo-4,5-dihydropyrazolo[1,5-a]quinoxalin-7-yl)methyl)-1-methyl-1,4,5,6-tetrahydropyrrolo[3,4-d]imidazol-2-yl)-N-methylpicolinamide] reads over 100 nM.
The same measure, in the same setting: the result for `CNC(=O)c1ccc(-c2cc3c(o2)CN(Cc2ccc4c([nH]c(=O)c5c(F)cnn54)c2F)C3)cn1` [Example 46, 5-(5-((3,6-difluoro-4-oxo-4,5-dihydropyrazolo[1,5-a]quinoxalin-7-yl)methyl)-5,6-dihydro-4H-furo[2,3-c]pyrrol-2-yl)-N-methylpicolinamide] reads 2.16 nM; that for `CNC(=O)c1ccc(-c2cc3c(s2)CN(Cc2ccc4c([nH]c(=O)c5c(F)cnn54)c2F)C3)cn1` [Example 47, 5-(5-((3,6-difluoro-4-oxo-4,5-dihydropyrazolo[1,5-a]quinoxalin-7-yl)methyl)-5,6-dihydro-4H-thieno[2,3-c]pyrrol-2-yl)-N-methylpicolinamide], 14.4 nM; that for `CNC(=O)c1ccc(N2CC3CN(Cc4ccc5c([nH]c(=O)c6c(F)cnn65)c4F)CC3C2)c(F)n1` (stereo not drawn) [Example 61, 5-(5-((3,6-difluoro-4-oxo-4,5-dihydropyrazolo[1,5-a]quinoxalin-7-yl)methyl)hexahydropyrrolo[3,4-c]pyrrol-2(1H)-yl)-6-fluoro-N-methylpicolinamide], over 100 nM.
As for `CNC(=O)c1ccc(N2CC3CN(Cc4ccc5c([nH]c(=O)c6c(C)cnn65)c4F)CC3C2)c(F)n1` (stereo not drawn) [Example 64, 6-fluoro-5-(5-((6-fluoro-3-methyl-4-oxo-4,5-dihydropyrazolo[1,5-a]quinoxalin-7-yl)methyl)hexahydropyrrolo[3,4-c]pyrrol-2(1H)-yl)-N-methylpicolinamide], the IC50 was over 100 nM.

The target in another assay is recombinant poly(ADP-ribose) polymerase 2 (PARP2) (Homo sapiens, UniProt Q9UGN5). The assay is described as follows: PARP2 chemiluminescent assay. Particulars: PARP2 enzyme activity, chemiluminescence, 40 ng enzyme/well. It counts as biochemical. The protocol: The solution of recombinant poly(ADP-ribose) polymerase 1 and 2 (PARP1 and PARP2) (40 ng enzyme/well) and the compounds to be tested were mixed, respectively. The solutions were added to a 96-well plate coated with histone mixture, incubated at room temperature for 1 h, then 50 μL 0.3 ng/mL Streptavidin-HRP was added to each well. The plates were incubated for 30 minutes at room temperature. Finally, the plates were treated with streptavidin-HRP followed by addition of the ELISA ECL substrate to produce chemiluminescence that can be measured using a chemiluminescence reader. Inhibition of the tested compound to PARP1/2 enzyme activity was calculated according to the following formula. [formula] IC50 value is obtained by fitting the s-shaped dose response curve equation by using XL Fit software.
Sequence of recombinant poly(ADP-ribose) polymerase 2 (PARP2) (Q9UGN5 whole entry): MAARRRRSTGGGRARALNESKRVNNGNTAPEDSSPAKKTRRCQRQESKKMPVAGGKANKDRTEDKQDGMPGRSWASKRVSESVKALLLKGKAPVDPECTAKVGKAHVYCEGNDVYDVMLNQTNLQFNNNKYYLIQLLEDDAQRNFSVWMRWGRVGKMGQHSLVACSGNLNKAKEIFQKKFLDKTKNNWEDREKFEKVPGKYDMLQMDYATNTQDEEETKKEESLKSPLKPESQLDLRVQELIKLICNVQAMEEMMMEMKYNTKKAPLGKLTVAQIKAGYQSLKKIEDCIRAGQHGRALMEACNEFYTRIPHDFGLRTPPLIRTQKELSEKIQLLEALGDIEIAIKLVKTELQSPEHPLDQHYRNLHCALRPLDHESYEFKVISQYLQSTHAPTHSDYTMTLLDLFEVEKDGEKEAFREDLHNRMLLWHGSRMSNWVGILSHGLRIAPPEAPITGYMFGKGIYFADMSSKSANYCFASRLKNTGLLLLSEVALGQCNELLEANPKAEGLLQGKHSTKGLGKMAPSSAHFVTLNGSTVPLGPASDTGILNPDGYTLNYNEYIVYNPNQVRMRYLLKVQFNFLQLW
For `CNC(=O)c1ccc(-n2cc3c(n2)CCN(Cc2ccc4c([nH]c(=O)c5c(C)cnn54)c2F)C3)cn1` [Example 10-1, 5-(5-((6-fluoro-3-methyl-4-oxo-4,5-dihydropyrazolo[1,5-a]quinoxalin-7-yl)methyl)-4,5,6,7-tetrahydro-2H-pyrazolo[4,3-c]pyridin-2-yl)-N-methylpicolinamide], the IC50 was over 10000 nM.
The same measure, in the same setting: the result for `CNC(=O)c1ccc(-n2ncc3c2CCN(Cc2ccc4c([nH]c(=O)c5c(C)cnn54)c2F)C3)cn1` [Example 10-2, 5-(5-((6-fluoro-3-methyl-4-oxo-4,5-dihydropyrazolo[1,5-a]quinoxalin-7-yl)methyl)-4,5,6,7-tetrahydro-1H-pyrazolo[4,3-c]pyridin-1-yl)-N-methylpicolinamide] reads over 10000 nM.
The same measure, in the same setting: under `O=C(NC1CC1)c1ccc(-n2cc3c(n2)CN(Cc2ccc4c([nH]c(=O)c5c(F)cnn54)c2F)C3)c(F)n1` [Example 21, N-cyclopropyl-5-(5-((3,6-difluoro-4-oxo-4,5-dihydropyrazolo[1,5-a]quinoxalin-7-yl)methyl)-5,6-dihydropyrrolo[3,4-c]pyrazol-2(4H)-yl)-6-fluoropicolinamide] stands over 10000 nM.
